Laboratory results: patent US20090018194A1, “Use of antimicrobial agents derived from alliaceous plants for the prevention and control of crop diseases, post-harvest rot and as environmental disinifectant products” (DMC Research Center, S.L., priority 2007, published 2009)

How the values were obtained:
Penicillium expansum = experiment: post-harvest rotting of inoculated apples, drencher treatment; format: in vivo; conditions: 15 days of refrigeration at 5-6° C.
Method: (§1) The effectiveness of the active principle PTS (in various individual doses) was studied in the control of post-harvest rotting of pears and apples caused by the fungi Botrytis cinerea and Penicillium expansum, the principal agents of diseases in these fruits. These phytopathogens can appear in fruit being stored in a cold room and, once in the processing plant and in a later phase, form colonies and are transferred from one fruit to another by contact. The study was performed by means of a controlled inoculation test to ensure a high percentage of affected fruits, and to guarantee that this level of infection is with certainty caused by these pathogens, thereby making it possible to detect and evaluate significant differences between the different treatments. […] To perform the controlled inoculation, wild strains of Botrytris cinerea and Penicillium expansum were used which were isolated in fruit and vegetable processing plants. […] After the time indicated above had passed, the various post-harvest treatments were carried out by means of […] 25° C. for 60 seconds.

Botrytis cinerea = experiment: as above; format: in vivo; conditions: 15 days of refrigeration at 5-6° C.
Method: as §1

[1] = system: Listeria monocytogenes CECT 4032; experiment: agar diffusion test with impregnated cellulose discs; format: cell-based; conditions: incl. 6 mm disc
[2] = system: Aspergillus niger CECT 2700; experiment: as above; format: cell-based; conditions: incl. 6 mm disc
[3] = system: Phytophthora citrophthora; experiment: post-harvest rotting of inoculated oranges (Navelina), immersion treatment; format: in vivo
Method: This example considers the effectiveness of the active natural principles PTS and PTSO in two different doses for the control of post-harvest rotting of oranges ([…] variety), caused by controlled artificial inoculation with the fungi Penicillium digitatum, Penicillium expansum, Phytophthora citrophthora and Geotrichum candidum, the principal pathogens of this fruit. The inoculation of the oranges was carried out with suspensions of spores of the different wild fungal strains selected, according to the methodology described below. The first step was the isolation and identification of the fungal strains used in the study. The strains of filamentous fungi used in these tests (Penicillium digitatum, Penicillium italicum and Phytophthora citrophthora) were isolated from oranges affected by rot. In these isolation processes, it was not possible to detect any strain belonging to Geotrichum candidum, as a result of which it was necessary to obtain the latter substance from the Spanish Collection of Standard Cultures, where it is identified by reference CECT 1102. […] To promote the implantation of the inoculum of Geotrichum candidum, 200 ppm of cyclohexamide was added to the inoculum prior to its inoculation. […] The assessment of the effectiveness of PTS and PTSO comprised counting of the number of fruits affected by rot in the inoculated zone, to determine the percentage of fruit affected for each treatment and fungus inoculated, and expressing this effectiveness as a percentage of reduction of the affected fruit.

[4] = system: Escherichia coli CECT 515; experiment: agar diffusion test with impregnated cellulose discs; format: cell-based; conditions: incl. 6 mm disc
[5] = system: Penicillium italicum CECT 2294; experiment: as above; format: cell-based; conditions: incl. 6 mm disc
[6] = system: Penicillium italicum Wild strain Supplied by UdL-IRTA; experiment: agar diffusion test, wild phytopathogens isolated from citrus rot; format: cell-based; conditions: incl. 6 mm disc
[7] = system: Penicillium sp. (CPC-PT-1); experiment: agar diffusion test, wild fungi isolated from crown rot in bananas; format: cell-based; conditions: incl. 6 mm disc
[8] = 1600 ppm, 4 days of treatment at 20° C.
[9] = 1600 ppm, 7 days of treatment at 20° C.
[10] = 2500 ppm, 4 days of treatment at 20° C.
[11] = 2500 ppm, 7 days of treatment at 20° C.

**Q.** For `CCCS[S+]([O-])CCC` (stereo not drawn) [PTS, Propyl Propyl Thiosulfinate], which “% of fruit affected” value (Penicillium expansum; Golden Delicious, 500 ppm) is on record?
**A.** 1.4%

**Q.** What about the “% of fruit affected” value (Penicillium expansum; Golden Delicious, 666 ppm) of the same compound?
**A.** 0.5%

**Q.** And the “% of fruit affected” value (Penicillium expansum; Golden Delicious, 833 ppm)?
**A.** 2.5%

**Q.** What about the “% of fruit affected” value (Penicillium expansum; Golden Delicious, 1666 ppm) of the same compound?
**A.** 0.7%

**Q.** What about the “% of fruit affected” value (Penicillium expansum; Red Chief, 500 ppm) of the same compound?
**A.** 2.8%

**Q.** And the “% of fruit affected” value (Penicillium expansum; Red Chief, 666 ppm)?
**A.** 0%

**Q.** What about the “% of fruit affected” value (Penicillium expansum; Red Chief, 833 ppm) of the same compound?
**A.** 3.2%

**Q.** What about the “% of fruit affected” value (Penicillium expansum; Red Chief, 1666 ppm) of the same compound?
**A.** 2.4%

**Q.** What about the “% of fruit affected” value (Botrytis cinerea; Golden Delicious, 500 ppm) of the same compound?
**A.** 0.5%

**Q.** What about the “% of fruit affected” value (Botrytis cinerea; Golden Delicious, 666 ppm) of the same compound?
**A.** 0%

**Q.** And the “% of fruit affected” value (Botrytis cinerea; Golden Delicious, 833 ppm)?
**A.** 1%

**Q.** What about the “% of fruit affected” value (Botrytis cinerea; Golden Delicious, 1666 ppm) of the same compound?
**A.** 0%

**Q.** What about the “% of fruit affected” value (Botrytis cinerea; Red Chief, 500 ppm) of the same compound?
**A.** 1%

**Q.** And the “% of fruit affected” value (Botrytis cinerea; Red Chief, 666 ppm)?
**A.** 0%

**Q.** And the “% of fruit affected” value (Botrytis cinerea; Red Chief, 833 ppm)?
**A.** 1.5%

**Q.** What about the “% of fruit affected” value (Botrytis cinerea; Red Chief, 1666 ppm) of the same compound?
**A.** 0%

**Q.** And the “diameter of the microbial inhibition halo” value ([1]; 25 ppm)?
**A.** 18 mm

**Q.** And the “diameter of the microbial inhibition halo” value ([1]; 50 ppm)?
**A.** 24 mm

**Q.** And the “diameter of the microbial inhibition halo” value ([1]; 100 ppm)?
**A.** 30 mm

**Q.** What about the “diameter of the microbial inhibition halo” value ([2]; 25 ppm) of the same compound?
**A.** 10 mm

**Q.** What about the “diameter of the microbial inhibition halo” value ([2]; 50 ppm) of the same compound?
**A.** 13 mm

**Q.** What about the “diameter of the microbial inhibition halo” value ([2]; 100 ppm) of the same compound?
**A.** 19 mm

**Q.** And the “% Reduction” value [3, 8]?
**A.** 60%

**Q.** What about the “% of fruit affected” value [3, 8] of the same compound?
**A.** 18%

**Q.** And the “% Reduction” value [3, 9]?
**A.** 7%

**Q.** And the “% of fruit affected” value [3, 9]?
**A.** 93%

**Q.** And the “% Reduction” value [3, 10]?
**A.** 70%

**Q.** What about the “% of fruit affected” value [3, 10] of the same compound?
**A.** 8%

**Q.** And the “% Reduction” value [3, 11]?
**A.** 20%

**Q.** What about the “% of fruit affected” value [3, 11] of the same compound?
**A.** 80%

**Q.** What about the “diameter of the microbial inhibition halo” value ([4]; 25 ppm) of the same compound?
**A.** 14 mm

**Q.** What about the “diameter of the microbial inhibition halo” value ([4]; 50 ppm) of the same compound?
**A.** 17 mm

**Q.** What about the “diameter of the microbial inhibition halo” value ([4]; 100 ppm) of the same compound?
**A.** 21 mm

**Q.** What about the “diameter of the microbial inhibition halo” value ([5]; 25 ppm) of the same compound?
**A.** 22 mm

**Q.** And the “diameter of the microbial inhibition halo” value ([5]; 50 ppm)?
**A.** 26 mm

**Q.** And the “diameter of the microbial inhibition halo” value ([5]; 100 ppm)?
**A.** 34 mm

**Q.** What about the “diameter of the microbial inhibition halo” value ([6]; 30 ppm) of the same compound?
**A.** 0 mm

**Q.** And the “diameter of the microbial inhibition halo” value ([6]; 60 ppm)?
**A.** 0 mm

**Q.** And the “diameter of the microbial inhibition halo” value ([6]; 125 ppm)?
**A.** 13 mm

**Q.** What about the “diameter of the microbial inhibition halo” value ([6]; 250 ppm) of the same compound?
**A.** 13 mm

**Q.** And the “diameter of the microbial inhibition halo” value ([6]; 500 ppm)?
**A.** 15 mm

**Q.** What about the “diameter of the microbial inhibition halo” value ([6]; 1000 ppm) of the same compound?
**A.** 20 mm

**Q.** And the “diameter of the microbial inhibition halo” value ([7]; 30 ppm)?
**A.** 0 mm

**Q.** What about the “diameter of the microbial inhibition halo” value ([7]; 60 ppm) of the same compound?
**A.** 0 mm

**Q.** What about the “diameter of the microbial inhibition halo” value ([7]; 125 ppm) of the same compound?
**A.** 11 mm

**Q.** What about the “diameter of the microbial inhibition halo” value ([7]; 250 ppm) of the same compound?
**A.** 15 mm

**Q.** And the “diameter of the microbial inhibition halo” value ([7]; 500 ppm)?
**A.** 18 mm

**Q.** And the “diameter of the microbial inhibition halo” value ([7]; 1000 ppm)?
**A.** 20 mm
